Read-outs that look alike come from different tables or passages of the source.
How the values were obtained:
BRDT(2) = BRDT(2) (Homo sapiens (Human), UniProt Q58F21); experiment: Bromodomain binding assay, BRDT(2)
Procedure: (§1) T7 phage strains displaying bromodomains were grown in parallel in 24-well blocks in an E. coli host derived from the BL21 strain. E. coli were grown to log-phase and infected with T7 phage from a frozen stock (multiplicity of infection=0.4) and incubated with shaking at 32° C. until lysis (90-150 min). The lysates were centrifuged (5,000×g) and filtered (0.2 μm) to remove cell debris. Streptavidin-coated magnetic beads were treated with biotinylated small molecule or acetylated peptide ligands for 30 min at RT to generate affinity resins for bromodomain assays. The ligated beads were blocked with excess biotin and washed with blocking buffer (SeaBlock (Pierce), 1% BSA, 0.05% Tween 20, 1 mM DTT) to remove unbound ligand and to reduce non-specific phage binding. Binding reactions were assembled by combining bromodomains, ligated affinity beads, and test compounds in 1× binding buffer (16% SeaBlock, 0.32×PBS, 0.02% BSA, 0.04% Tween 20, 0.004% Sodium azide, 7.9 mM DTT). Test compounds were prepared as 1000× stocks in 100% DMSO and subsequently diluted 1:25 in MEG. The compounds were then diluted directly into the assays such that the final concentrations of DMSO and MEG were 0.1% and 2.4%, respectively. All reactions were performed in polypropylene 384-well plates in a final volume of 0.02 ml. The assay plates were incubated at RT with shaking for 1 hr and the affinity beads were washed with wash buffer (1×PBS, 0.05% Tween 20). The beads were then re-suspended in elution buffer (1×PBS, 0.05% Tween 20, 2 μM non-biotinylated affinity ligand) and incubated at RT with shaking for 30 min. The bromodomain concentration in the eluates was measured by quantitative polymerase chain reaction (qPCR).
(§2) An 11-point 3-fold serial dilution of each test compound was prepared in 100% DMSO at 1000× final test concentration. […] Most dissociation constants were determined using a compound top concentration=10,000 nM. If the initial dissociation constant determined was <0.169 nM (the lowest concentration tested), the measurement was repeated with a serial dilution starting at a lower top concentration. […]

human liver hepatocytes = experiment: Intrinsic clearance in human liver hepatocytes; format: in vitro ADME; conditions: human cryopreserved hepatocytes, 0.5 μM test compound
Procedure: Vials of human cryopreserved hepatocytes, supplied by Life Technologies, were thawed according to manufacturer's instructions and cells re-suspended in Williams Medium E (WME) containing cell maintenance supplement pack (CM4000, Life Technologies). Hepatocytes were incubated in suspension (0.5 million cells/mL) in 48 well non-collagen coated cell culture plates for 10 min at 37° C., 5% CO2. Upon addition of an equal volume of supplemented WME containing 1 μM test compound, an aliquot of incubation solution was removed to acetonitrile containing internal standard (final concentration 0.5 μM test compound and a cell density of 0.25 million cells/mL). Similarly, aliquots were removed at 3, 6, 9, 15, 30, 45, 60, 90 and 120 min. 100 μL of 80:20 water:acetonitrile was added to all samples and the analysis plate was centrifuged for 10 min at RT prior to injection and analysis of samples by UPLC-MS/MS. The response (area ratio of test compound to internal standard) was plotted against time using an exponential decay model from which rate of disappearance was calculated.

BRDT(1) = BRDT(1) (Homo sapiens (Human), UniProt Q58F21); experiment: Bromodomain binding assay, BRDT(1)
Procedure: as §1, §2

[1] = system: CD4+ T-cells stimulated by CD2, CD3 and CD28 antibodies; experiment: Cellular activity IL-4: reduction of IL-4 levels in activated CD4+ T-cells; format: cell-based, human; conditions: Homo sapiens, T-cell
Procedure: • 1. CD4^+ T-cells are isolated from cryopreserved human peripheral blood mononuclear cells (PBMCs) using EasySep™ Kit (Cat. No. 17952, Stemcell Technologies). • 2. CD2, CD3 and CD28 antibodies coated beads from T cell Activation/Expansion Kit (Cat. No. 130-091-441, Miltenyi Biotec) are added to the CD4^+ T-cells at a bead-to-cell ratio of 1:2. • 3. CD4^+ T-cells along with the beads are seeded at 2×10^5 cells/well in a round bottom 96-well plate and treated with different compounds and controls in a total volume of 200 μl. • 4. The cells are cultured for 48 hrs at 37° C., 5% CO2. • 5. Supernatant is collected and IL-4 is analysed by ELISA.

BRD3(2) = BRD3(2) (Homo sapiens (Human), UniProt Q15059); experiment: Bromodomain binding assay, BRD3(2)
Chain of BRD3(2) (Q15059 306-415): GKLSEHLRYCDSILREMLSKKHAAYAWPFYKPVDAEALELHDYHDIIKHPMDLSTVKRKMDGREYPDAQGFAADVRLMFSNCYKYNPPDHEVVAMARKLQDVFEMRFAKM
Procedure: as §1, §2

BRD2(1) = BRD2(1) (Homo sapiens (Human), UniProt P25440); experiment: Bromodomain binding assay, BRD2(1)
Chain of BRD2(1) (P25440 74-180): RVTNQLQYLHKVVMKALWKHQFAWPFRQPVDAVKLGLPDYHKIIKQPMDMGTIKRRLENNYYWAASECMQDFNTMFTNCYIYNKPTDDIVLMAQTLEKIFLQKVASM
Procedure: as §1, §2

BRD4 BD2 = BRD4 BD2 (Homo sapiens (Human), UniProt O60885); experiment: Bromodomain binding assay (T7 phage display, qPCR), BRD4 BD2
Procedure: as §1
(§3) An 11-point 3-fold serial dilution of each test compound was prepared in 100% DMSO at 1000× final test concentration. All compounds were distributed by acoustic transfer (non-contact dispensing) in 100% DMSO. The compounds were then diluted directly into the assays such that the final concentration of DMSO was 0.09%. Most dissociation constants were determined using a compound top concentration=10,000 nM. If the initial dissociation constant determined was <0.169 nM (the lowest concentration tested), the measurement was repeated with a serial dilution starting at a lower top concentration.
(§4) The same bromodomain assay procedure as that outlined above was used. Example compounds were screened at 30 times their Kd, and results for primary screen binding interactions are reported as ‘% Ctrl’, where lower numbers indicate stronger hits in the matrix.

BRD4 BD1 = BRD4 BD1 (Homo sapiens (Human), UniProt O60885); experiment: Bromodomain binding assay (T7 phage display, qPCR), BRD4 BD1
Procedure: as §1, §3, §4

[2] = system: healthy human skin stimulated by a Th2 or Th17 biasing cocktail; experiment: Th2 and Th17 stimulation of human skin explants, IL-4 / IL-17A mRNA; format: cell-based
Procedure: • 1. Freshly excised healthy human skin tissue from abdominoplasties is defatted, cleaned and sectioned into 7 mm biopsies. • 2. The biopsies are placed in Transwell® inserts with the epidermis apical and exposed to air and the dermis submerged in media in the basal chamber. • 3. The biopsies are pre-treated overnight at 37° C., 5% CO2 with different compounds and controls added to the media in the basal chamber. • 4. The next day, contents of the basal chamber is replaced with fresh media containing the test compound and a stimulation cocktail for either Th2 inflammation (proprietary Medpharm cocktail) or Th17 inflammation (mix of antibodies against CD3, CD28, IL-4, IFNγ and recombinant IL-1β, IL-6, IL-21, TGF-β). • 5. The biopsies are incubated at 37° C., 5% CO2 for a further 24 hrs. • 6. After harvesting, the biopsies are cut in half, and one half is homogenized and used for RNA extraction by standard methods. IL-4 or IL-17A is assessed by RT-qPCR.

BRD2(2) = BRD2(2) (Homo sapiens (Human), UniProt P25440); experiment: Bromodomain binding assay, BRD2(2)
Chain of BRD2(2) (P25440 344-453): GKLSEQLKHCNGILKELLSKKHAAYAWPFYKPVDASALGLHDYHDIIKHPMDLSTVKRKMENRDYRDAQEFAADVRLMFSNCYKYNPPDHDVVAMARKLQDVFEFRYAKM
Procedure: as §1, §2

BRD3(1) = BRD3(1) (Homo sapiens (Human), UniProt Q15059); experiment: Bromodomain binding assay, BRD3(1)
Chain of BRD3(1) (Q15059 34-140): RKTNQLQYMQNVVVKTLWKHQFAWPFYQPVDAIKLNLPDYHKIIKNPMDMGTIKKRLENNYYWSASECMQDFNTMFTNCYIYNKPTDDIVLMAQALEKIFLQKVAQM
Procedure: as §1, §2

[3] = Stability in human skin S9 fraction; format: in vitro ADME; conditions: 0.3 mg/mL S9, NADPH, UDPGA, 0.5 μM compound; for half-life at 0.5 μM: human, human skin S9 fraction, pH 7.4, read-out: T1/2 (min) in human skin S9 fractions
Procedure: An incubation mixture was prepared containing 50 mM potassium phosphate buffer, pH 7.4), 0.3 mg/mL human skin S9 (Sekisui Xenotech), NADPH (final conc 0.8 mg/mL), UDPGA (final conc 0.16 mg/mL) and warmed to 37° C. for 5 min. The reaction was initiated upon addition of test compound (final concentration 0.5 μM). Immediately, at time zero, then at 3, 6, 15, 30, 60, 120 and 180 min, an aliquot (50 μL) of the incubation mixture was removed and mixed with acetonitrile (100 μL) to terminate the reaction. Internal standard was added to all samples, the samples centrifuged to sediment precipitated protein and the plates then sealed prior to UPLC-MS/MS analysis using a Quattro Premier XE (Waters corporation, USA).
Grafit (Erithacus Ltd) was used to calculate the exponential decay and consequently the rate constant (k) from the ratio of peak area of test compound to internal standard at each timepoint. The half life (T1/2) of each test compound was determined using the following equation: T1/2=0.693/k

[4] = Solubility in topical formulations; format: physicochemical; conditions: thermodynamic from solid
Procedure: The solubilities of solid exemplary compounds were determined in a selection of solvents and solvent combinations (Transcutol, 50:50 Transcutol:water, Labrasol, propylene glycol and 1:5:4 ethanol:propylene glycol:water), after equilibration. An appropriate volume of each combination was added to a manual weighing of solid compound to provide a 20 mg/mL concentration. The resulting suspension was shaken at 1000 rpm for 5 hr at 32° C. before centrifugation at 13,000×g for 10 min to pellet any precipitate. The supernatant solution was removed and inserted into a HPLC vial and quantified by HPLC-UV against a calibration of a known concentration of the compound in DMSO.

[5] = Hydrolytic stability at a range of pHs; format: physicochemical; conditions: 60° C., 6 days
Procedure: To test the hydrolytic stability a 1 mg/mL solution of test materials was made in DMSO (0.1% solution). To 300 μL of each solution in a HPLC vials was added 1200 μL of one of the following: pH 4.0 buffer—left at 60° C. for 5 days. Samples taken t=0 hr and 6 days pH 5.5 buffer—left at 60° C. for 5 days. Samples taken t=0 hr and 6 days pH 7.4 buffer—left at 60° C. for 5 days. Samples taken t=0 hr and 6 days A 100 μL aliquot was taken at each time point and added to 900 μL of DMSO. This sample was used to determine % decomposition.
% decomposition was measured with a Bruker MicrOTOF II focus ESI Mass Spectrometer connected in parallel to Dionex Ultimate 3000 RSLC system with diode array detector.

[6] = single point, screened at 30 times Kd, lower numbers indicate stronger hits
[7] = 48 hrs, ELISA, read-out: EC50 reduction of IL-4 levels
[8] = read-out: cellular EC50 values, reduction of IL-4 levels
[9] = Labrasol, oil or lipid, 5 hr at 32° C., read-out: Solubility in LB (Labrasol)
[10] = Transcutol, organic solvent or mixture, 5 hr at 32° C., read-out: Solubility in TC (Transcutol)
[11] = Transcutol:water 1:1, aqueous with cosolvent or surfactant or cyclodextrin, 5 hr at 32° C., read-out: Solubility in TC:water 1:1
[12] = propylene glycol, organic solvent or mixture, 5 hr at 32° C., read-out: Solubility in PG (Propylene glycol)

CCNC(=O)c1cc2c(-c3ccn(C)c(=O)c3Oc3c(C)cc(F)cc3C)cn(C)c(=O)c2[nH]1 [Example 41, N-ethyl-4-(3-(4-fluoro-2,6-dimethylphenoxy)-1-methyl-2-oxo-1,2-dihydropyridin-4-yl)-6-methyl-7-oxo-6,7-dihydro-1H-pyrrolo[2,3-c]pyridine-2-carboxamide]
Kd (BRDT(2); dose response): < 10 nM | BRDT(2) % Ctrl (BRDT(2); [6]): 13 % Ctrl | Intrinsic clearance, % Liver Blood Flow (human liver hepatocytes): <34 % Liver Blood Flow | Kd (BRDT(1); dose response): > 3000 nM | BRDT(1) % Ctrl (BRDT(1); [6]): 100 % Ctrl | EC50 [1, 7]: 10 to 100 nM | EC50 [1, 8]: < 100 nM | Kd (BRD3(2); dose response): < 10 nM | BRD3(2) % Ctrl (BRD3(2); [6]): 2.3 % Ctrl | Kd (BRD2(1); dose response): > 3000 nM | BRD2(1) % Ctrl (BRD2(1); [6]): 100 % Ctrl | Kd (BRD4 BD2; dose response, read-out: BRD4(2) Kd): < 10 nM | Kd (BRD4 BD2; read-out: BRD4 BD2 Kd): ≤ 10 nM | BRD4(2) % Ctrl (BRD4 BD2; [6]): 8.7 % Ctrl | Kd (BRD4 BD1; dose response, read-out: BRD4(1) Kd): > 3000 nM | Kd (BRD4 BD1; read-out: BRD4 BD1 Kd): > 1000 nM | BRD4(1) % Ctrl (BRD4 BD1; [6]): 90 % Ctrl | % reduction in IL-4 mRNA (IL-4) ([2]; 2.5 μM, Th2 biasing cocktail): ++ (> 50% reduction) | % reduction in IL-17A mRNA (IL-17) ([2]; 2.5 μM, Th17 biasing cocktail): +++ (> 75% reduction) | reduction of IL-4 or IL-17 levels ([2]; Th2 or Th17 biasing cocktail): > 50% | Kd (BRD2(2); dose response): < 10 nM | BRD2(2) % Ctrl (BRD2(2); [6]): 0.1 % Ctrl | Kd (BRD3(1); dose response): > 3000 nM | BRD3(1) % Ctrl (BRD3(1); [6]): 85 % Ctrl

Cn1cc(-c2ccc(O)cc2Oc2ccccc2)c2cc[nH]c2c1=O [Example 2, 4-(4-hydroxy-2-phenoxyphenyl)-6-methyl-1,6-dihydro-7H-pyrrolo[2,3-c]pyridin-7-one]
Intrinsic clearance, % Liver Blood Flow (human liver hepatocytes): 88 % Liver Blood Flow | half-life at 0.5 μM [3]: > 120 min | Kd (BRD4 BD1; read-out: BRD4 BD1 Kd): 10 to 100 nM | solubility at 5 hr [4, 9]: 1000 to 10000 µg/mL | solubility at 5 hr [4, 10]: > 10000 µg/mL | solubility at 5 hr [4, 11]: 1000 to 10000 µg/mL | solubility at 5 hr [4, 12]: 1000 to 10000 µg/mL | pH 4.0 % decomposition ([5]; pH 4.0 buffer): 15% | pH 5.5 % decomposition ([5]; pH 5.5 buffer): 30% | pH 7.4 % decomposition ([5]; pH 7.4 buffer): 0%

Cn1cc(-c2cc(O)ccc2Oc2ccccc2)c2cc[nH]c2c1=O [Example 6, 4-(5-hydroxy-2-phenoxyphenyl)-6-methyl-1,6-dihydro-7H-pyrrolo[2,3-c]pyridin-7-one]
Intrinsic clearance, % Liver Blood Flow (human liver hepatocytes): 94 % Liver Blood Flow | T1/2 (min) in human skin S9 fractions [3]: >120 min | half-life at 0.5 μM [3]: > 120 min | EC50 [1, 7]: 10 to 100 nM | EC50 [1, 8]: < 100 nM | Kd (BRD4 BD1; read-out: BRD4 BD1 Kd): ≤ 10 nM | solubility at 5 hr [4, 9]: > 10000 µg/mL | solubility at 5 hr [4, 10]: > 10000 µg/mL | solubility at 5 hr [4, 11]: 1000 to 10000 µg/mL | solubility at 5 hr ([4]; ethanol:propylene glycol:water 1:5:4, aqueous with cosolvent or surfactant or cyclodextrin, 5 hr at 32° C., read-out: Solubility in EtOH:PG:water 1:5:4): 1000 to 10000 µg/mL | solubility at 5 hr [4, 12]: > 10000 µg/mL | solubility at 5 hr ([4]; topical formulation solvents and solvent combinations, 32 °C, organic solvent or mixture, read-out: solubilities in the formulations described): > 1000 µg/mL
